For orientation: inhibition means the relative decrease from the control value, in per cent. Broadly, the IC50 is the concentration that gives 50% inhibition. High values mean weaker potency, low ones greater potency.

SMILES strings stand for the structures. Active and inactive are the calls of the source. The calls are words filed in the database; no cut-off is given here.

In ChEMBL document CHEMBL2440085, “Identification of novel PARP-1 inhibitors by structure-based virtual screening” (Bioorg Med Chem Lett, 2013) one finds inhibition and IC50 data, which are given here for 30 compounds.

For the first assay, the target named is T1, Poly [ADP-ribose] polymerase 1 (Homo sapiens, UniProt P09874). The experiment in a line: Inhibition of PARP-1 (unknown origin) at 1 uM after 60 mins by colorimetric assay relative to control.
T1 sequence (P09874 whole entry): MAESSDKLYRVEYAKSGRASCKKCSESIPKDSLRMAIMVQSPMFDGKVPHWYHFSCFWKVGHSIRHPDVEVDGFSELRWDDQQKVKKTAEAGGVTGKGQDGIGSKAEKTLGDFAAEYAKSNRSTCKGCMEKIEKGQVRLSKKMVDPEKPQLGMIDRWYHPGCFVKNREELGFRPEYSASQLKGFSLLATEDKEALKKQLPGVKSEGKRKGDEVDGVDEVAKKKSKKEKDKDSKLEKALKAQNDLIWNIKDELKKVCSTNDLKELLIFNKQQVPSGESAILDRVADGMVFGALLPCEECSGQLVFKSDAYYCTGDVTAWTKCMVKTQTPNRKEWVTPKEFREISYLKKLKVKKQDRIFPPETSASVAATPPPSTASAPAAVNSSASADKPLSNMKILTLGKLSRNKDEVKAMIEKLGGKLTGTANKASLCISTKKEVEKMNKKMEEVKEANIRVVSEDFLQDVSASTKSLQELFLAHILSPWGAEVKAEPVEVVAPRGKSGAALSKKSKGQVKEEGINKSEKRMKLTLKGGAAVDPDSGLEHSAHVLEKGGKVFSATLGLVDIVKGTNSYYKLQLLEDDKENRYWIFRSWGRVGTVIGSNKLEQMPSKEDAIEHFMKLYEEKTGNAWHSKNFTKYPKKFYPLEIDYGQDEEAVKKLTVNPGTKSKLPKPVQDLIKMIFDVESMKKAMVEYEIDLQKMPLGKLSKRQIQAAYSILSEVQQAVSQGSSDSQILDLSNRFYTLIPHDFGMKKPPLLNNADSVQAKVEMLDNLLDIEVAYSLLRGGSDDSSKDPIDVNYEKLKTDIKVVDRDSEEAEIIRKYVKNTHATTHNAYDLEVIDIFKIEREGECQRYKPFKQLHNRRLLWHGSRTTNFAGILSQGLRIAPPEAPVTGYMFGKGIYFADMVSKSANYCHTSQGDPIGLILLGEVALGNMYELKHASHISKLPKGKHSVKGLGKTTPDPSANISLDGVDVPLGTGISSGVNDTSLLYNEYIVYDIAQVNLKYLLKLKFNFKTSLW
For `O=C(O)CN1C(=O)c2ccc3c4c(ccc(c24)C1=O)C(=O)N3`, the inhibition result is “inactive”.
Same read-out and setting: as for `CC(C)(C)c1nn2c(SCC(=O)c3ccc(Cl)c(Cl)c3)nnc2[nH]c1=O`, the entry is “inactive”; as for `O=C1Nc2ccc(S(=O)(=O)NCc3ccccn3)c3cccc1c23`, “inactive”.
Same read-out and setting: as for `O=c1[nH]n(-c2ccc([N+](=O)[O-])cc2)c(=O)c2ccccc12`, the entry is “inactive”; as for `CC1Oc2ccc(NC(=O)CNC(=O)c3ccccc3)cc2NC1=O` (stereo not given), “inactive”.
Still for that read-out and setting: as for `O=C(CSc1nc2sc3c(c2c(=O)[nH]1)CCC3)N(CCO)CCO`, the figure is 40%; as for `CCCn1c2c(c(=S)[nH]c1=O)CCC2`, “inactive”; as for `Cc1nn2nnnc2[nH]c1=O`, “inactive”.
As to `Cc1ccc2cc(CCN)c(=O)[nH]c2c1C`, the inhibition result was “inactive”.
On the same count and under the same terms, the result for `Cc1ccc(C(=O)CSc2nc3c(c(=O)[nH]2)CCC3)cc1` reads “inactive”.
On the same count and under the same terms, as for `Oc1nc2ccccc2n2nnnc12`, the entry is “inactive”.
On the same count and under the same terms, the result for `O=C1N[C@@H]2N(Cc3ccccc3C23CCOCC3)c2ccccc21` reads 40%; that for `CCN(CC)c1ccc(/C=N\Nc2nnc(C)c(=O)[nH]2)cc1`, “inactive”; that for `O=C1NC(=O)c2cc(NS(=O)(=O)c3cccc4cccnc34)ccc21`, “inactive”.
Regarding `O=C(CS(=O)(=O)CC(=O)c1ccc2c(c1)NC(=O)CO2)Nc1ccccc1`, the inhibition result is “inactive”.
The same measure, in the same setting: the result for `Cc1ccc(C(=O)C2=C3NC(=O)c4ccccc4N3Cc3ccccc32)cc1` reads “inactive”; that for `O=C(c1ccccc1)c1c2nc[nH]c(=O)c2c2ccccn12`, “inactive”; that for `N#Cc1c(-c2ccccc2)cn2c1[nH]c(=O)c1ccccc12`, 40%.
On the same count and under the same terms, as for `O=c1[nH]c(NCc2ccncc2)nc2c1CCC2`, the entry is “inactive”.
Regarding `Cc1cc(OCC(=O)Nc2ccc3c(c2)NC(=O)C(C)O3)ccc1Cl` (stereo not given), the inhibition entry is “inactive”.
For `O=C1Nc2ccc(S(=O)(=O)NCc3cccnc3)c3cccc1c23`, the inhibition entry is “inactive”.
On the same count and under the same terms, as for `O=C1Nc2ccc(S(=O)(=O)Nc3ccc(Cl)cn3)c3cccc1c23`, the entry is “inactive”; as for `CC1Oc2ccc(NC(=O)COc3ccc(F)cc3)cc2NC1=O` (stereo not given), “inactive”.
On the same count and under the same terms, as for `Cc1sc2nc(SCC(=O)N3CCN(CCO)CC3)[nH]c(=O)c2c1C`, the figure is 40%.
Same read-out and setting: as for `Cc1cccc(N2CCN(c3nnc(C)c(=O)[nH]3)CC2)c1C`, the entry is “inactive”; as for `O=C1N[C@H]2Cc3ccccc3CN2c2ccccc21`, 40%; as for `O=C(c1ccc(F)cc1)c1c2nc[nH]c(=O)c2c2ccccn12`, “inactive”.

Another assay has as its target T1, Poly [ADP-ribose] polymerase 1. The experiment in a line: Inhibition of PARP-1 (unknown origin) after 60 mins by colorimetric assay.
Consider `O=C(CSc1nc2sc3c(c2c(=O)[nH]1)CCC3)N(CCO)CCO`, for which the IC50 amounted to 2140 nM.
In the case of `O=c1[nH]cnc2ccsc12`, half-maximal inhibition (IC50) required 14000 nM.
On the same count and under the same terms, the result for `O=C1N[C@@H]2N(Cc3ccccc3C23CCOCC3)c2ccccc21` reads 1960 nM; that for `N#Cc1c(-c2ccccc2)cn2c1[nH]c(=O)c1ccccc12`, 9570 nM.
On the same count and under the same terms, the result for `Cc1sc2nc(SCC(=O)N3CCN(CCO)CC3)[nH]c(=O)c2c1C` reads 720 nM; that for `O=C1N[C@H]2Cc3ccccc3CN2c2ccccc21`, 1920 nM.

For the next assay the target is unchanged. The experiment in a line: Inhibition of PARP-1 (unknown origin) at 10 uM after 60 mins by colorimetric assay relative to control.
Turning to `Oc1ncnc2ccsc12`, the inhibition was 46%.
Still for that read-out and setting: as for `O=c1[nH]cnc2sccc12`, the figure is under 20%.
